# Legend:
# [1] = molecular target: Fatty acid-binding protein, heart (Homo sapiens, UniProt P05413); experiment: Displacement of 8-anilino-1-naphthalene-sulfonic acid from human His-FABP3 expressed in Escherichia coli BL21 (DE3) cells after 3 mins relative to linoleic acid
# [2] = Displacement of 8-anilino-1-naphthalene-sulfonic acid from human FABP4 F16A mutant expressed in Escherichia coli BL21 (DE3) cells after 3 mins
# Homo sapiens [3] = organism: Homo sapiens; experiment: Selectivity ratio of IC50 for human FABP4 F126A mutant to IC50 for human wild type FABP4
# Homo sapiens [4] = organism: Homo sapiens; experiment: Selectivity index, ratio of IC50 for His-human FABP3 to IC50 for human His-FABP4
# [5] = molecular target: T1, Fatty acid-binding protein, adipocyte (Homo sapiens, UniProt P15090); experiment: Displacement of 8-anilino-1-naphthalene-sulfonic acid from human His-FABP4 expressed in Escherichia coli BL21 (DE3) cells after 3 mins relative to linoleic acid
# Target sequence in this assay (P15090 whole entry): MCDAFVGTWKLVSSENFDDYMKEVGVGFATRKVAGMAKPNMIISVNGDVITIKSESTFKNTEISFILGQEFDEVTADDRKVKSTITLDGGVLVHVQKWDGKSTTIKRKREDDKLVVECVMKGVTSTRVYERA
# Homo sapiens [6] = organism: Homo sapiens; experiment: Selectivity ratio of IC50 for human FABP4 F106A mutant to IC50 for human wild type FABP4
# [7] = molecular target: T1, Fatty acid-binding protein, adipocyte; experiment: Displacement of 8-anilino-1-naphthalene-sulfonic acid from human His-FABP4 expressed in Escherichia coli BL21 (DE3) cells after 3 mins
# Target sequence in this assay (P15090 whole entry): as above
# [8] = molecular target: T1, Fatty acid-binding protein, adipocyte; experiment: Displacement of 8-anilino-1-naphthalene-sulfonic acid from human His-FABP4 expressed in Escherichia coli BL21 (DE3) cells at 100 uM after 3 mins
# Target sequence in this assay (P15090 2-132 limits assumed): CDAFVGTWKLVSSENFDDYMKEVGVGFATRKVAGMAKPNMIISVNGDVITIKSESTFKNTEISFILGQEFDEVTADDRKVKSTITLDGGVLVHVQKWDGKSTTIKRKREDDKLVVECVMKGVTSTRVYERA
# BL21-DE3 [9] = experiment: Displacement of 8-anilino-1-naphthalene-sulfonic acid from human FABP4 F16A mutant expressed in Escherichia coli BL21 (DE3) cells at 500 uM after 3 mins
# BL21-DE3 [10] = experiment: Displacement of 8-anilino-1-naphthalene-sulfonic acid from human FABP4 F16A mutant expressed in Escherichia coli BL21 (DE3) cells at 700 uM after 3 mins
# Chain of Fatty acid-binding protein, heart (P05413 whole entry): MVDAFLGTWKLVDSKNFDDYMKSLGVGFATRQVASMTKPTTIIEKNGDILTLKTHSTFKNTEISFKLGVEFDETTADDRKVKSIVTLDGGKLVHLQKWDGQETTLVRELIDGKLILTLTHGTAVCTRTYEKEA
Compound,IC50 [1] [µM],IC50 [2] [µM],Ratio IC50 (Homo sapiens [3]),Ratio IC50 (Homo sapiens [4]),IC50 [5] [µM],Ratio IC50 (Homo sapiens [6]),IC50 [7] [µM],inhibition [8] [%],inhibition (BL21-DE3 [9]) [%],inhibition (BL21-DE3 [10]) [%]
O=C(O)CSCC(=O)NCc1c(Cl)cccc1Oc1ccccc1,1.9,76.5,6.6,0.6,3.1,3.4,42.2,62.5,–,–
COC(=O)c1cc(OC)c(OC)cc1NC(=O)CSCC(=O)O,–,–,–,–,–,–,> 100,46.9,–,–
O=[N+]([O-])c1ccc(S(=O)(=O)c2ccccc2)cc1OS(=O)(=O)c1cc(Cl)cc(Cl)c1,–,–,–,–,–,–,> 100,40.7,–,–
CCCCCCCC/C=C\CCCCCCCC(=O)O,–,–,–,–,–,–,–,66.8,–,–
c1cc(CSc2nc3ccccc3[nH]2)nc(CSc2nc3ccccc3[nH]2)c1,–,–,–,–,–,–,> 100,47.7,–,–
O=c1[nH]nc(SCCS(=O)(=O)c2ccc(Cl)cc2Cl)n1-c1ccc2c(c1)OCCO2,–,–,–,–,–,–,> 100,37.1,–,–
CCCCC/C=C\C/C=C\CCCCCCCC(=O)O,–,–,–,–,–,–,–,81.4,36.9,39
O=C(O)CSCC(=O)Nc1ccc(F)c(Cl)c1,> 432,–,–,> 99,4.4,–,59.5,56.2,–,–
COc1ccc(-c2c(C(F)(F)F)nn(C)c2NC(=O)CSCC(=O)O)cc1,–,–,–,–,–,–,> 100,20.1,–,–
O=C(O)CSCC(=O)NCc1ccccc1N1CCCCC1,6.3,–,–,1.5,4.1,–,56.3,58.7,–,–
O=C(O)CSCC(=O)Nc1cc(Cl)cc(Cl)c1,> 144,–,11.1,> 144,1,1.3,13.5,84.9,50.7,57
Cc1ccc(SC(CC(=O)c2ccc(C)cc2)C(=O)O)cc1 (stereo not drawn),–,–,–,–,–,–,> 100,44.4,–,–

# Reference: ChEMBL document CHEMBL1155532 (Bioorg Med Chem Lett, 2010)
